Measurements from patent publication US20260167623A1 (NIKANG THERAPEUTICS, INC., priority 2022, published 2026).

Target: T1, CDK2 (Homo sapiens, UniProt P24941)
T1 construct: High-Throughput Measurement of Cellular Endogenous CDK2; endogenous in cells; host or cells: OVCAR3
Experiment: Inhibition of CDK2: phospho-Rb (S807/811) HTRF measurement in OVCAR3 cells, 24 h
Format: cell-based
Details: 24 h compound treatment, read-out: pRB_OVCAR3_24h
Description: Inhibition of CDK2: Phospho-R^b Measurement in Cells
Phosphorylation of RB protein at S807/811 were measured using HTRF phospho-RB cellular kits (Cat #64RBS807PEG) from Cisbio.
On Day 1, OVCAR3 (CDK2 dependent cell line) cells were seeded into 96-well tissue-culture treated plates at 20,000 cells/well in 200 μL and incubated overnight at 37° C. in CO2 atmosphere. On Day 2, the cells were treated with test compounds at concentrations from 0.3 to 10,000 nM using HP D300 digital dispenser. Twenty-four hours after compound treatment, cell culture media is removed by flicking the plate and tapping the plate against clean paper towel. 30 μL 1× lysis buffer was supplemented from the kit was added to each well and the plate was incubated at room temperature on shaker for 30 min. After homogenization by pipetting up and down, 8 μL cell lysate from 96-well cell culture plate was transferred to 384-well small volume white detection plate. 2 μL premixed detection solution was added and the plate was covered with sealer. To prepare the detection solution, d2 conjugated-phospho-RB antibody and Eu-cryptate conjugated phosphor-RB antibody were diluted into detection buffer following manufacturer's instruction. Detection plates were incubated for 4 h at room temperature and read on ClarioStar (BMG Labtech) in TR-FRET mode (665 nM and 620 nM). The TR-FRET ratio (665 nM/620 nM) was plotted against the compound concentration and normalized to DMSO controls. Half maximal inhibition concentration (IC50) values were calculated with a four-parameter logistic fit using GraphPad Prism (version 8; La Jolla, CA).

Row | SMILES | IC50 [nM]
1 | Cn1nc(N2CCC(=O)NC2=O)c2ccc(C3CCN(Cc4cccc(S(=O)(=O)N5CCC(Nc6ncc(OC(F)F)cn6)CC5)c4)CC3(F)F)cc21 (stereo not shown) [Example 75, 1-(6-(1-(3-((4-((5-(difluoromethoxy)-pyrimidin-2-yl)amino)piperidin-1-yl)sulfonyl)benzyl)-3,3-difluoropiperidin-4-yl)-1-methyl-1H-indazol-3-yl)dihydropyrimidine-2,4(1H,3H)-dione] | 100 to 500
2 | O=C1CCC(Nc2ccc(N3CCN(Cc4cccc(S(=O)(=O)N5CCC(Nc6ncc(C(F)(F)F)cn6)CC5)c4)CC3)cc2)C(=O)N1 (stereo not shown) [Example 78, 3-((4-(4-(3-((4-((5-(trifluoromethyl)-pyrimidin-2-yl)amino)piperidin-1-yl)sulfonyl)benzyl)piperazin-1-yl)phenyl)amino) piperidine-2,6-dione] | 100 to 500
3 | O=C1CCC(N2C(=O)c3cc(F)c(N4CCN(CC5CCN(c6cccc(S(=O)(=O)N7CCC(Nc8ncc(Cl)cn8)CC7)c6)CC5)CC4)cc3C2=O)C(=O)N1 (stereo not shown) [Example 79, 5-(4-((1-(3-((4-((5-chloropyrimidin-2-yl)amino)piperidin-1-yl)sulfonyl)phenyl)-piperidin-4-yl)methyl)piperazin-1-yl)-2-(2,6-dioxopiperidin-3-yl)-6-fluoroisoindoline-1,3-dione] | 500 to 2500
4 | O=C1CCC(N2C(=O)c3cc(F)c(N4CCN(CC5CCN(c6cccc(S(=O)(=O)N7CCC(Nc8ncc(C(F)(F)F)cn8)CC7)c6)CC5)CC4)cc3C2=O)C(=O)N1 (stereo not shown) [Example 80, 2-(2,6-dioxopiperidin-3-yl)-5-fluoro-6-(4-((1-(3-((4-((5-(trifluoromethyl)pyrimidin-2-yl)amino)piperidin-1-yl)sulfonyl)phenyl)-piperidin-4-yl)methyl)piperazin-1-yl)isoindoline-1,3-dione] | 100 to 500
5 | Cn1nc(N2CCC(=O)NC2=O)c2ccc(C3CN(Cc4cccc(S(=O)(=O)N5CCC(Nc6ncc(OC(F)F)cn6)CC5)c4)C3)cc21 [Example 81, 1-(6-(1-(3-((4-((5-(difluoromethoxy)-pyrimidin-2-yl)amino)piperidin-1-yl)sulfonyl)benzyl)azetidin-3-yl)-1-methyl-1H-indazol-3-yl)dihydropyrimidine-2,4(1H,3H)-dione] | 500 to 2500
6 | O=C1CCN(c2ccc(N3CCN(Cc4cccc(S(=O)(=O)N5CCC(Nc6ncc(C(F)(F)F)cn6)CC5)c4)CC3)cc2)C(=O)N1 [Example 82, 1-(4-(4-(3-((4-((5-(trifluoromethyl)-pyrimidin-2-yl)amino)piperidin-1-yl)sulfonyl)benzyl)piperazin-1-yl)phenyl) dihydropyrimidine-2,4(1H,3H)-dione] | 500 to 2500
7 | Cn1nc(N2CCC(=O)NC2=O)c2ccc(N3CCC(NCc4cccc(S(=O)(=O)N5CCC(Nc6ncc(Cl)cn6)CC5)c4)CC3)cc21 [Example 84, 1-(6-(4-((3-((4-((5-chloropyrimidin-2-yl)amino)piperidin-1-yl)sulfonyl)benzyl)-amino)piperidin-1-yl)-1-methyl-1H-indazol-3-yl)dihydropyrimidine-2,4(1H,3H)-dione] | > 2500
8 | Cn1nc(N2CCC(=O)NC2=O)c2ccc(N3CCC(NCc4cccc(S(=O)(=O)N5CCC(Nc6ncc(C(F)(F)F)cn6)CC5)c4)CC3)cc21 [Example 85, 1-(1-methyl-6-(4-((3-((4-((5-(trifluoro-methyl)pyrimidin-2-yl)amino)piperidin-1-yl)sulfonyl)benzyl)amino)piperidin-1-yl)-1H-indazol-3-yl)dihydropyrimidine-2,4(1H,3H)-dione] | 500 to 2500
9 | CN(Cc1cccc(S(=O)(=O)N2CCC(Nc3ncc(C(F)(F)F)cn3)CC2)c1)CC1CCN(c2ccc3c(N4CCC(=O)NC4=O)nn(C)c3c2)CC1 [Example 88, 1-(1-methyl-6-(4-((methyl(3-((4-((5-(trifluoromethyl)pyrimidin-2-yl)amino)-piperidin-1-yl)sulfonyl)benzyl)amino)-methyl)piperidin-1-yl)-1H-indazol-3-yl)dihydropyrimidine-2,4(1H,3H)-dione] | 500 to 2500
10 | Cn1nc(N2CCC(=O)NC2=O)c2ccc(C3CCN(CC4CCN(c5cccc(S(=O)(=O)N6CCC(Nc7ncc(C(F)(F)F)cn7)CC6)c5)CC4)CC3(F)F)cc21 (stereo not shown) [Example 90, 1-(6-(3,3-difluoro-1-((1-(3-((4-((5-(trifluoromethyl)pyrimidin-2-yl)amino)-piperidin-1-yl)sulfonyl)phenyl)piperidin-4-yl)methyl)piperidin-4-yl)-1-methyl-1H-indazol-3-yl)dihydropyrimidine-2,4(1H,3H)-dione] | 100 to 500
11 | CC(Cc1cccc(S(=O)(=O)N2CCC(Nc3ncc(C(F)(F)F)cn3)CC2)c1)CN1CCN(c2cc3c(cc2F)C(=O)N(C2CCC(=O)NC2=O)C3)CC1 (stereo not shown) [Example 96, 3-(6-fluoro-5-(4-(2-methyl-3-(3-((4-((5-(trifluoromethyl)pyrimidin-2-yl)amino)-piperidin-1-yl)sulfonyl)phenyl)propyl)-piperazin-1-yl)-1-oxoisoindolin-2-yl)piperidine-2,6-dione] | 100 to 500
12 | CC(Cc1cccc(S(=O)(=O)N2CCC(Nc3ncc(Cl)cn3)CC2)c1)CN1CCN(c2cc3c(cc2F)C(=O)N(C2CCC(=O)NC2=O)C3)CC1 (stereo not shown) [Example 97, 3-(5-(4-(3-(3-((4-((5-chloropyrimidin-2-yl)amino)piperidin-1-yl)sulfonyl)phenyl)-2-methylpropyl)piperazin-1-yl)-6-fluoro-1-oxoisoindolin-2-yl)piperidine-2,6-dione] | 500 to 2500
13 | O=C1CCC(N2Cc3cc(N4CCN(CC5CCN(c6cccc(S(=O)(=O)N7CCC(Nc8ncc(Cl)cn8)CC7)c6)CC5)CC4)ccc3C2=O)C(=O)N1 (stereo not shown) [Example 98, 3-(5-(4-((1-(3-((4-((5-chloropyrimidin-2-yl)amino)piperidin-1-yl)sulfonyl)phenyl)-piperidin-4-yl)methyl)piperazin-1-yl)-1-oxoisoindolin-2-yl)piperidine-2,6-dione] | 100 to 500
14 | O=C1CCC(N2Cc3cc(N4CCN(CC5CCN(c6cccc(S(=O)(=O)N7CCC(Nc8ncc(C(F)(F)F)cn8)CC7)c6)CC5)CC4)c(F)cc3C2=O)C(=O)N1 (stereo not shown) [Example 101, 3-(6-fluoro-1-oxo-5-(4-((1-(3-((4-((5-(trifluoromethyl)pyrimidin-2-yl)amino)-piperidin-1-yl)sulfonyl)phenyl)piperidin-4-yl)methyl)piperazin-1-yl)isoindolin-2-yl)piperidine-2,6-dione] | 100 to 500
15 | CC(Cc1cccc(S(=O)(=O)N2CCC(Nc3ncc(OC(F)F)cn3)CC2)c1)CN1CCN(c2cc3c(cc2F)C(=O)N(C2CCC(=O)NC2=O)C3)CC1 (stereo not shown) [Example 102, 3-(5-(4-(3-(3-((4-((5-(difluoromethoxy)-pyrimidin-2-yl)amino)piperidin-1-yl)sulfonyl)phenyl)-2-methylpropyl)-piperazin-1-yl)-6-fluoro-1-oxoisoindolin-2-yl)piperidine-2,6-dione] | 500 to 2500
16 | O=C1CCC(N2Cc3cc(N4CCN(CC5CCN(c6cccc(S(=O)(=O)N7CCC(Nc8ncc(Cl)cn8)CC7)c6)CC5)CC4)c(F)cc3C2=O)C(=O)N1 (stereo not shown) [Example 103, 3-(5-(4-((1-(3-((4-((5-chloropyrimidin-2-yl)amino)piperidin-1-yl)sulfonyl)phenyl)-piperidin-4-yl)methyl)piperazin-1-yl)-6-fluoro-1-oxoisoindolin-2-yl)piperidine-2,6-dione] | 500 to 2500
